One data set has as its system HUVEC cells. Description: In vitro cytotoxicity (resazurin blue), HUVEC. Format: cell-based, human. The procedure:
(§1) B16F10 (lymphatically metastatic murine melanoma), MDA-MB-231 (human breast cancer), and HUVEC (normal human endothelial) cell lines, were maintained in Dulbecco's modified Eagle's medium (DMEM) supplemented with 1% L-Glutamine and 10% bovine growth serum in 5% CO2 atmosphere. The HER2-expressing murine breast cancer cell line, 4T1.2 Neu was maintained in DMEM supplemented with 1% L-Glutamine, 10% bovine growth serum, and 500 μg/mL of G418 (geneticin) in 5% CO2 atmosphere. The lymphatically metastatic human melanoma cell line, A2058 was maintained in low sodium bicarbonate (1.5 g/L) containing DMEM supplemented with 1% L-Glutamine, 10% bovine growth serum in 5% CO2 atmosphere.
(§2) Prior to cell growth inhibition studies, cells were trypsinized and seeded at 3000 cells/well into 96-well tissue culture plates. After 24 hours, geldanamycin, 17-DMAG, 17-AAG, 17-HEAG, Star-GA (GA basis), or melphalan hydrochloride dilutions in 1×PBS (Fisher BioReagents, pH 7.4) with up to 3% DMSO (final well concentration, for the highest drug concentration) were added to the B16F10, A2058, HUVEC, 4T1.2 Neu, or MDA-MB-231 cells (n=8 or 12, 10 μL/well, 8 or 6 concentrations 10^−10 to 10^−3 M, respectively). Solutions of 10% trichloracetic acid was used as a negative control, media was used as a positive control, and 3% DMSO was used as an additional control (n=8 or 12, 10 μL/well). At 72 h post addition, 10 μL of resazurin blue in PBS was added (5 μM final concentration) to each well. After 3 hours, well fluorescence was measured (λex/λem=560/590 nm) (SpectraMax Gemini, Molecular Devices). IC50s were determined using the nonlinear regression curve fit of a one-site competition (GraphPad Prism 10).
On the technique in general: Resazurin is reduced to fluorescent resorufin, in cell work by metabolically active cells.

For the next data set, the system named is B16F10 cells. Description: cells. Format: cell-based, murine. The conditions noted are these: read-out: IC50s B16F10. The procedure:
as §1, §2

Another data set deals with A2058 cells. Briefly: In vitro cytotoxicity (resazurin blue), A2058. It is filed as cell-based, human. The conditions noted are these: read-out: IC50s A2058. The procedure:
as §1, §2

Another data set relates to 4T1.2 Neu cells. Briefly: In vitro cytotoxicity (resazurin blue), 4T1.2 Neu. Format: cell-based, murine. The conditions noted are these: 72 h, Star-GA on GA basis, read-out: IC50s 4T1.2 Neu. Here is the method:
as §1, §2

The next data set has as its system MDA-MB-468 cells. Description: Cell growth inhibition (resazurin blue), MDA-MB-468. Format: cell-based, human. The conditions noted are these: 72 hours. The procedure: (§3) Cell growth inhibition was determined in 96-well plates (3,000 cells/well in 100 μL, 12 replicates/sample) using highly invasive human breast cancer cells, MDA-MB-231, non-metastatic human breast cancer cells, MDA-MB-468, and highly invasive human head and neck squamous cell cancer cells positive for epithelia growth factor receptor, MDA-1986. Drug or conjugate solutions were applied after 24 hours, and 72 hours post-addition, resazurin blue in 10 μL of PBS was applied to each well (final concentration 5 μM).

Data set [1] concerns MDA-1986 cells. Briefly: Cell growth inhibition (resazurin blue), MDA-1986. The conditions noted are these: 72 hours. Format: cell-based, human. The procedure: as §3
The subject of data set [2] is MDA-1986 human head and neck squamous cell carcinoma. Briefly: Head and neck tumor model, efficacy of sugar-NO1. It is filed as in vivo, female nude mice.
Data set [3] deals with MDA-1986 cells. Briefly: Nitric oxide release (Griess) in cell culture with MDA-1986 cells. It is filed as cell-based, human. Here is the method: The fluorescence intensity was measured between 520 and 550 nm using a fluorescence microplate reader.
The concentration of nitrite, the stable breakdown product of gaseous nitric oxide, was measured using Griess assay as an indirect measurement of nitric oxide concentration in cell culture media. The assay is based on the reaction between sulfanilamide, N-1-napthyethylenediamine dihydrochloride and nitrite, under acidic conditions to produce a […] azo compound.
Background: The Griess reaction detects nitrite, a stable product of nitric oxide.

The test system of a further data set is MDA-MB-231 cells. Briefly: In vitro cytotoxicity (resazurin blue), MDA-MB-231. Format: cell-based, human. The conditions noted are these: Homo sapiens, MDA-MB-231; 72 h; Star-GA on GA basis; read-out: IC50s MDA-MB-231. The procedure:
as §1
Prior to cell growth inhibition studies, cells were trypsinized and seeded at 3000 cells/well into 96-well tissue culture plates. […] After 3 hours, well fluorescence was measured (λex/λem=560/590 nm) (SpectraMax Gemini, Molecular Devices). IC50s were determined using the nonlinear regression curve fit of a one-site competition (GraphPad Prism 10).

Another data set relates to B16F10 tumors. Format: in vivo. The conditions noted are these: melphalan i.v. 5 mg/kg; 17-DMAG i.v. 15 mg/kg; Star-GA s.c. 15 mg/kg DMAG equivalent; polymer s.c. equivalent dose; vs non-treated. Here is the method:
. The tumors were measured and recorded, the volumes were calculated using the equation: Tumor Volume (mm^3)=0.52×(width)^2×length. When the B16F10 tumors reached 200-350 mm^3 (ca. Days 6-9), mice were randomly divided into five treatment groups: melphalan (i.v., n=5), 17-DMAG (i.v., n=4), star polymer (s.c., n=6), Star-GA (s.c., n=7), or no treatment (n=4) (FIG. 30).
Mice in the melphalan treatment group were injected once with melphalan (5 mg/kg) intravenously via the tail veil under isoflurane anesthesia. The formulation used to treat mice bearing B16F10 tumors was modified slightly from the product insert for ALKERAN (melphalan hydrochloride) for injections into humans. Melphalan was dissolved in concentrated hydrochloric acid (35-38%) to give a 15 mg/mL solution. The melphalan solution was then aliquoted into vials to give 0.75 mg melphalan/vial, and was dried using a speedvac concentrator (Labconoco) for 1.5 hours at 35° C. followed by 1 hour at ambient temperature. The vials containing dry melphalan hydrochloride were sealed and placed at −20° C. until further use. The reconstituted solution was prepared by first pre-sterilizing propylene glycol, 95% ethanol, and 0.02 g/mL sodium citrate solution, using a sterile syringe fitted with a 0.22 μm sterile filter (Millex GP PES membrane sterile filter, Millipore) into a sterile falcon tube. Then the reconstituted solution was prepared by combining 6 mL sterile propylene glycol, 0.52 mL sterile ethanol (95%), and 3.48 mL sodium citrate solution, and the solution was mixed well and filtered a second time with at 0.22 μm sterile filter. Immediately prior to injection, the 150 μL of the sterile reconstituted solution was rapidly added to the melphalan hydrochloride, the vial was immediately shaken vigorously until dissolved, followed by the rapid addition of 150 μL of sterile saline yielding a 2.5 mg/mL melphalan solution. The melphalan was dosed within 10 to 15 minutes after reconstitution to minimize degradation.
17-DMAG was dissolved in sterile DMSO and administered i.v. via the tail vein at a dose of 15 mg/kg (MTD). […]

Read-outs that look alike come from different tables or passages of the source.

Turning to `C=CCNC1=C2C[C@@H](C)C[C@H](OC)[C@H](O)[C@@H](C)/C=C(\C)[C@H](OC(N)=O)[C@@H](OC)/C=C\C=C(/C)C(=O)NC(=CC1=O)C2=O` [17-AAG, 17-allylamino-17-demethoxygeldanamycin], the IC50 is 64 µM in the data set with HUVEC cells (72 h; Star-GA on GA basis; read-out: IC50s HUVEC); 0.825 µM with B16F10 cells (72 h, Star-GA on GA basis); 0.053 µM in the data set with A2058 cells (72 h, Star-GA on GA basis); 0.315 µM with 4T1.2 Neu cells.
`CCOC(=O)N1CCN(/[N+]([O-])=N/Oc2ccc([N+](=O)[O-])cc2[N+](=O)[O-])CC1` [JS-K, O^2-(2,4-Dinitrophenyl) 1-[(4-ethoxycarbonyl)piperazin-1-yl]diazen-1ium-1,2-diolate] returned an IC50 in the data set with MDA-MB-468 cells of 42 ± 4 µM. This compound displayed an IC50 in the data set with MDA-1986 cells [1] of 16 ± 2 µM. In [2] (10 mg/kg on NO prodrug basis), the “disease condition (modified RECIST), animal No. 1” value was “PD (PD = Progressive Disease (>30% tumor growth))”; the “disease condition (modified RECIST), animal No. 2” value was “Necrosis”; the “disease condition (modified RECIST), animal No. 3” value is reported as “PD (PD = Progressive Disease (>30% tumor growth))”; the “disease condition (modified RECIST), animal No. 4” value is recorded as “PD (PD = Progressive Disease (>30% tumor growth))”. Besides, in data set [2] (10 mg/kg on NO prodrug basis), the “disease condition (modified RECIST), animal No. 5” value was “Necrosis” and the “disease condition (modified RECIST), animal No. 6” value is listed as “PD (PD = Progressive Disease (>30% tumor growth))”. Besides, the tumor size entry in data set [2] (JS-K i.v. six weeks after tumor cell implantation, sugar-NO1 s.c. same time frame, 10 mg/kg) is “approximately 1000 mm^3”. The animals euthanized in data set [2] (within 7 weeks, tumor size exceeding 1000 mm^3 or necrosis of injection site on the tail) stood at 100%.
For the compound `CC1CN([N+]([O-])=NOc2ccc([N+](=O)[O-])cc2[N+](=O)[O-])CCN1CCO` (centres unmarked) [NO2, O^2-(2,4-Dinitrophenyl) 1-[[4-(2-hydroxy)ethyl]-3-methylpiperazin-1-yl]diazen-1-ium-1,2-diolate], the IC50 in the data set on MDA-MB-468 cells worked out at 27 ± 3 µM; in the data set on MDA-1986 cells [1], 57 ± 6 µM. Further, the “Release half-life” value in the data set on MDA-1986 cells [3] was determined as 9.0 h.
Take `COC1=C2C[C@@H](C)C[C@H](OC)[C@H](O)[C@@H](C)/C=C(\C)[C@H](OC(N)=O)[C@@H](OC)/C=C\C=C(/C)C(=O)NC(=CC1=O)C2=O` [geldanamycin]: the IC50 in the data set with HUVEC cells (Homo sapiens, HUVEC, 72 h; read-out: IC50s HUVEC) was found to be 0.44 µM; with B16F10 cells (Mus musculus, B16-F10, 72 h, Star-GA on GA basis), 0.036 µM; with MDA-MB-231 cells, 0.963 µM; with A2058 cells (Homo sapiens, A2058, 72 h, Star-GA on GA basis), 0.044 µM; in the data set on 4T1.2 Neu cells (Mus musculus, 4T1.2), 0.26 µM.
Consider `N[C@@H](Cc1ccc(N(CCCl)CCCl)cc1)C(=O)O` [melphalan], for which, in the data set with B16F10 tumors, the B16F10 tumor response entry is recorded as “complete response to treatment”. For the same compound, the IC50 in the data set with HUVEC cells (Homo sapiens, HUVEC, 72 h, read-out: IC50s HUVEC) stood at 209 µM; in the data set on B16F10 cells (Mus musculus, B16-F10, 72 h), 103 µM; in the data set with A2058 cells (Homo sapiens, A2058, 72 h), 30 µM.

(Values after patent US8802235B2, “Drug and imaging agent delivery compositions and methods” (priority 2012, dated 2014).)
